From patent US9302999B2, “Substituted triazoles as herbicides” (E. I. DU PONT DE NEMOURS AND COMPANY, priority 2012, dated 2016)

Key:
Assay type in all cases: in vivo
[1] = tested on: wild oat (Avena fatua); assay: Test C pre-/postemergence: wild oat
How it was run: (§1)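 Preemergence on seeds in loam/sand, postemergence on 2–18 cm (1–4-leaf) plants in peat-based medium; compounds in non-phytotoxic solvent with surfactant. After 13–15 days in greenhouse, visual rating versus controls, 0 (no effect) to 100 (complete control).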

[2] = tested on: corn (Zea mays); assay: Test A pre-/postemergence: corn
How it was run: (§2)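 Plants in loam–sand blend were treated with test chemicals in non-phytotoxic solvent with surfactant, either as preemergence directed soil spray or postemergence at 2–10 cm, one- to two-leaf stage. After about ten days in greenhouse, injury was rated visually against untreated controls on a 0–100 scale (100 = complete control).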

[3] = tested on: chickweed (common chickweed, Stellaria media); assay: Test C postemergence: chickweed
How it was run: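 Pot-grown plants in peat/vermiculite medium sprayed postemergence at 2–18 cm height (1- to 4-leaf stage). Kept in greenhouse 13 to 15 days, then visually rated against untreated controls on a 0–100 scale (0 = no effect, 100 = complete control).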

[4] = tested on: velvetleaf (Abutilon theophrasti); assay: Test A pre-/postemergence: velvetleaf
How it was run: as §2

[5] = tested on: johnsongrass (Sorghum halepense); assay: Test C pre-/postemergence: johnsongrass
How it was run: as §1

[6] = tested on: winter wheat (Triticum aestivum); assay: Test C pre-/postemergence: winter wheat
How it was run: as §1

[7] = tested on: pigweed (Amaranthus retroflexus); assay: Test C pre-/postemergence: pigweed
How it was run: as §1

[8] = tested on: barnyardgrass (Echinochloa crus-galli); assay: Test A pre-/postemergence: barnyardgrass
How it was run: as §2

[9] = tested on: blackgrass (Alopecurus myosuroides); assay: Test C pre-/postemergence: blackgrass
How it was run: as §1

[10] = tested on: rice (Oryza sativa); assay: Test B flooded paddy: rice; settings: Flood, applied to paddy water at 2-leaf stage, visually evaluated after 13 to 15 days
How it was run: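 Paddy-water application: seedlings at 2-leaf stage, flood depth 3 cm maintained for the test duration. Evaluation after 13–15 days in the greenhouse by eye relative to controls; 0–100 scale.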

[11] = Postemergence, 31 g ai/ha, scale 0 to 100 (0 no effect, 100 complete control)
[12] = Postemergence, 62 g ai/ha, scale 0 to 100 (0 no effect, 100 complete control)
[13] = Postemergence, 125 g ai/ha, scale 0 to 100, 0 no effect, 100 complete control
[14] = Postemergence, 250 g ai/ha, scale 0 to 100
[15] = Preemergence, 31 g ai/ha, scale of 0 to 100, 0 is no effect, 100 is complete control
[16] = Preemergence, 62 g ai/ha, scale of 0 to 100, 0 is no effect, 100 is complete control
[17] = Preemergence, 125 g ai/ha, scale 0 to 100, 0 no effect, 100 complete control
[18] = Preemergence, 250 g ai/ha, scale 0 to 100, 0 no effect, 100 complete control
[19] = Postemergence, 125 g ai/ha, 0 to 100 scale, 0 is no effect, 100 is complete control
[20] = Postemergence, 500 g ai/ha, visual rating on 0 to 100 scale (0 no effect, 100 complete control), approximately ten days
[21] = Preemergence, 125 g ai/ha, 0 to 100 scale (0 no effect, 100 complete control)
[22] = Preemergence, 500 g ai/ha, 0 to 100 scale, 0 is no effect, 100 is complete control
[23] = 31 g ai/ha, scale 0 to 100 (0 no effect, 100 complete control)
[24] = 62 g ai/ha, scale 0 to 100 (0 no effect, 100 complete control)
[25] = 125 g ai/ha, scale 0 to 100, 0 no effect, 100 complete control
[26] = Preemergence, 62 g ai/ha, scale 0 to 100, 0 no effect, 100 complete control
[27] = Preemergence, 125 g ai/ha, 0 to 100 scale where 0 is no effect and 100 is complete control
[28] = Preemergence, 500 g ai/ha, 0 to 100 scale (0 no effect, 100 complete control)
[29] = Postemergence, 500 g ai/ha, 0 to 100 scale, 0 is no effect, 100 is complete control

Fc1ccc(-n2nc(Cc3ccnc(C(F)(F)F)c3)c(OC(F)F)n2)cc1 [Compound 25]
Plant response rating, Oat, Wild [1, 11]: 5
Plant response rating, Oat, Wild [1, 12]: 5
Plant response rating, Oat, Wild [1, 13]: 30
Plant response rating, Oat, Wild [1, 14]: 30
Plant response rating, Oat, Wild [1, 15]: 20
Plant response rating, Oat, Wild [1, 16]: 30
Plant response rating, Oat, Wild [1, 17]: 80
Plant response rating, Oat, Wild [1, 18]: 90
Corn plant response rating [2, 19]: 30
Corn plant response rating [2, 20]: 30
Plant response rating, Corn [2, 21]: 10
Plant response rating, Corn [2, 22]: 30
Plant response rating, Chickweed [3, 23]: 30
Plant response rating, Chickweed [3, 24]: 60
Plant response rating, Chickweed [3, 25]: 98
Plant response rating, Chickweed ([3]; 250 g ai/ha, scale 0 to 100): 98
Velvetleaf plant response rating [4, 19]: 80
Velvetleaf plant response rating [4, 20]: 100
Plant response rating, Velvetleaf [4, 21]: 20
Plant response rating, Velvetleaf [4, 22]: 80
Plant response rating, Johnsongrass [5, 11]: 5
Plant response rating, Johnsongrass [5, 12]: 5
Plant response rating, Johnsongrass [5, 13]: 10
Plant response rating, Johnsongrass [5, 14]: 15
Plant response rating, Johnsongrass [5, 15]: 5
Plant response rating, Johnsongrass [5, 16]: 30
Plant response rating, Johnsongrass [5, 17]: 65
Plant response rating, Johnsongrass [5, 18]: 98
Plant response rating, Wheat [6, 11]: 10
Plant response rating, Wheat [6, 12]: 20
Plant response rating, Wheat [6, 13]: 30
Plant response rating, Wheat [6, 14]: 30
Plant response rating, Wheat [6, 15]: 0
Plant response rating, Wheat [6, 16]: 5
Plant response rating, Wheat [6, 17]: 10
Plant response rating, Wheat [6, 18]: 35
Plant response rating, Pigweed [7, 11]: 85
Plant response rating, Pigweed [7, 12]: 95
Plant response rating, Pigweed [7, 13]: 95
Plant response rating, Pigweed [7, 14]: 98
Plant response rating, Pigweed [7, 15]: 100
Plant response rating, Pigweed [7, 16]: 100
Plant response rating, Pigweed [7, 17]: 100
Plant response rating, Pigweed [7, 18]: 100
Barnyardgrass plant response rating [8, 19]: 50
Barnyardgrass plant response rating [8, 20]: 90
Plant response rating, Barnyardgrass [8, 21]: 80
Plant response rating, Barnyardgrass [8, 22]: 90
Plant response rating, Blackgrass [9, 11]: 10
Plant response rating, Blackgrass [9, 12]: 35
Plant response rating, Blackgrass [9, 13]: 40
Plant response rating, Blackgrass [9, 14]: 60
Plant response rating, Blackgrass [9, 15]: 60
Plant response rating, Blackgrass [9, 26]: 85
Plant response rating, Blackgrass [9, 17]: 95
Plant response rating, Blackgrass [9, 18]: 100
Plant response rating, Rice (0 to 100 scale, 0 is no effect, 100 is complete control) ([10]; 250 g ai/ha): 35

FC(F)Oc1nn(-c2ccc(C(F)(F)F)cc2)nc1Cc1ccnc(C(F)(F)F)c1 [Compound 26]
Plant response rating, Oat, Wild [1, 11]: 10
Plant response rating, Oat, Wild [1, 12]: 30
Plant response rating, Oat, Wild [1, 13]: 40
Plant response rating, Oat, Wild [1, 14]: 85
Plant response rating, Oat, Wild [1, 15]: 45
Plant response rating, Oat, Wild [1, 16]: 70
Plant response rating, Oat, Wild [1, 17]: 70
Plant response rating, Oat, Wild [1, 18]: 95
Corn plant response rating [2, 19]: 30
Corn plant response rating [2, 20]: 40
Plant response rating, Corn [2, 21]: 30
Plant response rating, Corn [2, 22]: 50
Plant response rating, Chickweed [3, 23]: 40
Plant response rating, Chickweed [3, 24]: 98
Plant response rating, Chickweed [3, 25]: 100
Plant response rating, Chickweed ([3]; 250 g ai/ha, scale 0 to 100): 100
Velvetleaf plant response rating [4, 19]: 100
Velvetleaf plant response rating [4, 20]: 100
Plant response rating, Velvetleaf [4, 21]: 80
Plant response rating, Velvetleaf [4, 22]: 90
Plant response rating, Johnsongrass [5, 11]: 15
Plant response rating, Johnsongrass [5, 12]: 15
Plant response rating, Johnsongrass [5, 13]: 25
Plant response rating, Johnsongrass [5, 14]: 40
Plant response rating, Johnsongrass [5, 15]: 15
Plant response rating, Johnsongrass [5, 16]: 55
Plant response rating, Johnsongrass [5, 17]: 95
Plant response rating, Johnsongrass [5, 18]: 98
Plant response rating, Wheat [6, 11]: 10
Plant response rating, Wheat [6, 12]: 20
Plant response rating, Wheat [6, 13]: 30
Plant response rating, Wheat [6, 14]: 35
Plant response rating, Wheat [6, 15]: 0
Plant response rating, Wheat [6, 16]: 5
Plant response rating, Wheat [6, 17]: 30
Plant response rating, Wheat [6, 18]: 30
Plant response rating, Pigweed [7, 12]: 60
Plant response rating, Pigweed [7, 13]: 80
Plant response rating, Pigweed [7, 14]: 98
Plant response rating, Pigweed [7, 15]: 100
Plant response rating, Pigweed [7, 16]: 100
Plant response rating, Pigweed [7, 17]: 100
Plant response rating, Pigweed [7, 18]: 100
Barnyardgrass plant response rating [8, 19]: 80
Barnyardgrass plant response rating [8, 20]: 90
Plant response rating, Barnyardgrass [8, 21]: 90
Plant response rating, Barnyardgrass [8, 22]: 90
Plant response rating, Blackgrass [9, 11]: 30
Plant response rating, Blackgrass [9, 12]: 35
Plant response rating, Blackgrass [9, 13]: 70
Plant response rating, Blackgrass [9, 14]: 90
Plant response rating, Blackgrass [9, 15]: 55
Plant response rating, Blackgrass [9, 26]: 90
Plant response rating, Blackgrass [9, 17]: 90
Plant response rating, Blackgrass [9, 18]: 90
Plant response rating, Rice (0 to 100 scale, 0 is no effect, 100 is complete control) ([10]; 250 g ai/ha): 80

Cc1nn(-c2ccc(F)cc2F)nc1Oc1ccnc(C(F)(F)F)c1 [Compound 146]
Plant response rating, Oat, Wild [1, 15]: 5
Plant response rating, Oat, Wild [1, 16]: 40
Plant response rating, Oat, Wild [1, 17]: 85
Plant response rating, Oat, Wild [1, 18]: 90
Corn plant response rating [2, 19]: 20
Corn plant response rating [2, 20]: 80
Plant response rating, Corn [2, 27]: 0
Plant response rating, Corn [2, 28]: 10
Plant response rating, Velvetleaf [4, 19]: 70
Velvetleaf plant response rating [4, 20]: 100
Plant response rating, Velvetleaf [4, 27]: 10
Plant response rating, Velvetleaf [4, 28]: 50
Plant response rating, Johnsongrass [5, 15]: 5
Plant response rating, Johnsongrass [5, 16]: 75
Plant response rating, Johnsongrass [5, 17]: 98
Plant response rating, Johnsongrass [5, 18]: 100
Plant response rating, Wheat [6, 16]: 0
Plant response rating, Wheat [6, 17]: 0
Plant response rating, Wheat [6, 18]: 10
Plant response rating, Pigweed [7, 15]: 85
Plant response rating, Pigweed [7, 16]: 90
Plant response rating, Pigweed [7, 17]: 100
Plant response rating, Pigweed [7, 18]: 100
Barnyardgrass plant response rating [8, 19]: 30
Barnyardgrass plant response rating [8, 20]: 90
Plant response rating, Barnyardgrass [8, 27]: 90
Plant response rating, Barnyardgrass [8, 28]: 100
Plant response rating, Blackgrass [9, 15]: 50
Plant response rating, Blackgrass [9, 16]: 70
Plant response rating, Blackgrass [9, 17]: 90
Plant response rating, Blackgrass [9, 18]: 90
Plant response rating, Rice (0 to 100 scale, 0 is no effect, 100 is complete control) ([10]; 250 g ai/ha): 35

CCOCc1nn(-c2ccc(F)cc2)nc1Oc1ccnc(C(F)(F)F)c1 [Compound 163]
Plant response rating, Corn [2, 19]: 20
Corn plant response rating [2, 29]: 30
Plant response rating, Corn [2, 27]: 0
Plant response rating, Corn [2, 28]: 10
Plant response rating, Velvetleaf [4, 19]: 40
Velvetleaf plant response rating [4, 29]: 100
Plant response rating, Velvetleaf [4, 27]: 0
Plant response rating, Velvetleaf [4, 28]: 20
Plant response rating, Johnsongrass [5, 15]: 30
Plant response rating, Johnsongrass [5, 16]: 35
Plant response rating, Johnsongrass [5, 17]: 60
Plant response rating, Johnsongrass [5, 18]: 60
Plant response rating, Wheat [6, 16]: 0
Plant response rating, Wheat [6, 17]: 0
Plant response rating, Wheat [6, 18]: 0
Plant response rating, Pigweed [7, 15]: 95
Plant response rating, Pigweed [7, 16]: 98
Plant response rating, Pigweed [7, 17]: 100
Plant response rating, Pigweed [7, 18]: 100
Plant response rating, Barnyardgrass [8, 19]: 70
Barnyardgrass plant response rating [8, 29]: 100
Plant response rating, Barnyardgrass [8, 27]: 90
Plant response rating, Barnyardgrass [8, 28]: 100
Plant response rating, Blackgrass [9, 15]: 5
Plant response rating, Blackgrass [9, 16]: 85
Plant response rating, Blackgrass [9, 17]: 90
Plant response rating, Blackgrass [9, 18]: 95
Plant response rating, Rice (0 to 100 scale, 0 is no effect, 100 is complete control) ([10]; 125 g ai/ha): 15
